Reference: PubChem BioAssay AID1996
Converted amounts (≈) assume the structure as drawn.

Conditions: buffer; pH 7.4; 200.0 µM

| SMILES | solubility kinetic [µg/mL] |
| --- | --- |
| OC(CNCc1ccccc1Cl)C(F)(F)F (centres undefined) | 34.1 (≈ 134 µM) |
| COCC(C)n1c(C)cc(C(=O)COC(=O)c2nn(C)c(=O)c3ccccc23)c1C (centres undefined) | > 61.7 |
| CCn1c(O)c(C#N)c(C)cc1=O | > 26.7 |
| CN1CCCN(c2ccc([N+](=O)[O-])cc2)CC1 | > 35.3 |
| CC(C)COc1ccc(C(=O)OCC(=O)NCc2cccs2)cc1 | 1.1 (≈ 3.17 µM) |
| O=C(O)c1cccnc1C(=O)c1ccccc1 | 31.9 (≈ 140 µM) |
| O=C(c1ccco1)c1cn(CC(=O)N2CCCC2)c2ccccc12 | > 48.4 |
| COc1ccc(C)cc1S(=O)(=O)N1CCc2ccccc2C1 | 18.1 (≈ 57 µM) |
| CN1CCN(c2c(F)cc3c(=O)c(C(=O)[O-])cn4c3c2OCN4C)CC1 | > 54.2 |
| CCOc1cc(/C=C2/C(=O)ON=C2C)cc(Br)c1O | > 48.9 |
| Cc1ccc(Cl)cc1NC(=O)N[C@@H](CC(C)C)C(=O)O | 43.8 (≈ 147 µM) |
| O=C(COC(=O)c1cc(Cl)nc(Cl)c1)NCCc1ccc(F)cc1 | > 55.7 |
| Cc1cccc(NC(=O)CCNC(=O)c2ccccc2Cl)n1 | > 47.7 |
| O=C(COc1ccc(C2SCCS2)cc1)Nc1ccc(Cl)cc1 | < 0.8 |
| COc1ccc(OC)c(N(CC(=O)N2CCCC2)S(C)(=O)=O)c1 | > 51.4 |
| COc1cc(OC)c2c(c1)S(=O)(=O)C(c1ccccc1)=C2N | 5.1 (≈ 16.1 µM) |
| CC(=O)Nc1ccc(S(=O)(=O)N2CCN(c3ccc([N+](=O)[O-])cc3)CC2)cc1 | 0.4 (≈ 0.989 µM) |
| Cc1ccc2nc(N3C(=O)CNC3=S)sc2c1 | 11.9 (≈ 45.2 µM) |

| SMILES | solubility kinetic [µg/mL] |
| --- | --- |
| O=C(CN1CCOCC1)Nc1ccc2c(c1)OC(F)(F)O2 | 41.2 (≈ 137 µM) |
| COC(=O)c1ccccc1CSc1nsc(C)c1C#N | < 0.3 |
| CCOc1ccc2ccccc2c1C(=O)N[C@@H]1C(=O)N2[C@@H]1SC(C)(C)[C@@H]2C(=O)[O-].[Na+] | > 65.5 |
| O=C(C1CCCN(S(=O)(=O)c2ccccc2)C1)N1CCCCC1 (centres undefined) | 50.4 (≈ 150 µM) |
| O=C(CSCCS(=O)(=O)c1ccc(Cl)cc1)Nc1ccccc1 | 3.5 (≈ 9.46 µM) |
| Cc1cccc(OCCSc2nc3ncnc(N)c3[nH]2)c1 | 1.5 (≈ 4.98 µM) |
| Cc1cnc(NC(=O)CCN2C(=O)C3CCCCC3C2=O)s1 (centres undefined) | 39.3 (≈ 122 µM) |
| Cc1onc(-c2ccccc2Cl)c1C(=O)N1CCCCC1 | > 45.7 |
| O=C(CC(c1ccccc1)c1ccccc1)Nc1ccc(O)cc1 | 31.7 (≈ 99.9 µM) |
| N#CCCN(C(=O)COC(=O)c1ccc(S(=O)(=O)N2CCOCC2)cc1)c1ccccc1 | 8.2 (≈ 17.9 µM) |
| COc1ccccc1NC(=O)CN1CCCCCC1 | 24.3 (≈ 92.6 µM) |
| CCCCCC(=O)NC(=S)Nc1ccc2oc(=O)ccc2c1 | 1.5 (≈ 4.71 µM) |
| CC(C)CC(=O)NC1(C(F)(F)F)NC(=O)N(c2ccccc2)C1=O (centres undefined) | 45.8 (≈ 133 µM) |
| Nc1cc(C(F)(F)F)cc([N+](=O)[O-])c1N | > 33.2 |
| CCOC(=O)C1CCCN(CC(=O)Nc2nccs2)C1 (centres undefined) | > 44.6 |
| CS(=O)(=O)N1CCC(C(=O)NCc2ccccc2)CC1 | > 44.5 |
| COc1ccc(NC(=O)c2oc3ccccc3c2C)cn1 | 4 (≈ 14.2 µM) |
| Clc1ccc2scc(CN3CCCC3)c2c1 | 35.3 (≈ 140 µM) |

Results, then the compound that gave them:

| solubility kinetic [µg/mL] | SMILES |
| --- | --- |
| 15.3 (≈ 49.8 µM) | COc1cccc2cc(C(=O)N3CCCc4ccccc43)oc12 |
| 0.2 (≈ 0.655 µM) | O=c1[nH]c(-c2cccnc2)nc2sc(-c3ccccc3)cc12 |
| 1.6 (≈ 5.75 µM) | Nc1ccc(NC(=O)NC2CCCCC2)cc1[N+](=O)[O-] |
| 45.9 (≈ 150 µM) | O=C(Nc1cccc(NC(=O)c2ccco2)c1)c1ccccc1 |
| 34.3 (≈ 118 µM) | CC(=O)N1CCN(c2ccnc3cc(Cl)ccc23)CC1 |
| 42.6 (≈ 129 µM) | CCC/C(O)=C1\C(=O)CC(C)(C)CC1=Nc1cccc([N+](=O)[O-])c1 |
| 49.7 (≈ 149 µM) | CCOc1cc(C(=O)NCc2ccco2)cc(OCC)c1OCC |
| > 69.4 | Cc1ccc(C2(c3ccc(C)cc3)NC(=O)N(CC(=O)NCCCN3CCCC3=O)C2=O)cc1 |
| 34.3 (≈ 108 µM) | CCCS(=O)(=O)C/C(N)=N/OC(=O)c1ccc(Cl)cc1 |
| > 47.7 | COc1ccc(NC(=O)CCNC(=O)c2ccco2)c(OC)c1 |
| < 0.4 | COC(=O)c1sccc1NC(=O)c1ccc(OC)c([N+](=O)[O-])c1 |
| > 48.4 | CC1=C(C)CC(C(=O)NC2CCN(C(C)C)CC2)C(C(=O)O)C1 (centres undefined) |
| 3.7 (≈ 10.1 µM) | O=C(COC(=O)c1ccc2c(c1)OCO2)Nc1ccccc1OC(F)F |
| > 47.1 | CN(C)CCC=C1c2ccccc2CCc2ccccc21.Cl |
| 17.6 (≈ 107 µM) | Nc1nc(N)c2c(n1)CCCC2 |
| > 53.8 | CCCCC(=O)N1CC(=O)Nc2ccc(F)cc2C1c1ccc(F)cc1 (centres undefined) |
| < 0.7 | COc1ccc(NC(=O)c2cc(=O)c3ccccc3o2)cc1Cl |
| 24.6 (≈ 77.3 µM) | Nc1c(C(=O)CSc2ccccn2)c(=O)[nH]c(=O)n1C1CC1 |
| > 43.4 | CCn1c(SCC(=O)N2CCCC2)nc2ccccc21 |
| 28.8 (≈ 126 µM) | COc1ccccc1CNc1cc(C)ccn1 |
| > 46.3 | O=C(NCC(=O)N1CCCCCCC1)c1ccccc1Cl |
| > 37.2 | CC(=O)c1cccc(NC(=O)N2CCOCC2)c1 |
| > 52 | O=C(/C=C/c1ccco1)N1CCN(S(=O)(=O)c2ccccc2)CC1 |
